The text below walks through data of paper PMC6154598, “Alkamides from Anacyclus pyrethrum L. and Their in Vitro Antiprotozoal Activity” (Molecules : A Journal of Synthetic Chemistry and Natural …, 2017).

Converted amounts (≈) assume the structure as drawn. Read-outs that look alike come from different tables or passages of the source. Where only a bound is given, the exact number is not on record here.

In data set [1] the test system is T. b. rhodesiense (STIB 900 strain, bloodstream trypomastigotes). Kind of data set: In vitro antiprotozoal activity against T. b. rhodesiense. The class given is cell-based, Trypanosoma brucei rhodesiense. The note with it: for SI Tbr: ratio of cytotoxic (L6) over antiprotozoal IC50 (Tbr). On the procedure: (§1) Tests for antiprotozoal activities were carried out using established standard protocols at the Swiss Tropical and Public Health Institute (Swiss TPH, Basel, Switzerland). The assays and the IC50 determinations were performed essentially as described previously. The compounds used as positive controls in the various bioassays (see Table 1) were of commercial origin, with the exception of melarsoprol, which was a gift from the WHO. Their purity (generally >95%) was specified by the manufacturers. The purity of test compounds was assessed by UHPLC/MS analyses and found to be >90% in case of compounds 1–6 and >80% in case of 7. Compounds 8 + 9 represented a mixture in a ratio of approximately 1:4 (Figure S10).

Data set [2] deals with T. cruzi (Tulahuen C4 strain; intracellular amastigotes). Kind of data set: In vitro antiprotozoal activity against T. cruzi. The class given is cell-based, Trypanosoma cruzi. On the procedure:
as §1

Data set [3] relates to L. donovani (MHOM-ET-67/L82 strain, axenic amastigotes). Kind of data set: In vitro antiprotozoal activity against L. donovani. It counts as cell-based, Leishmania donovani. The conditions noted are these: for SI Ld: ratio of cytotoxic (L6) over antiprotozoal IC50 (Ld). On the procedure:
as §1

The test system of data set [4] is P. falciparum (NF54 IEF). Kind of data set: In vitro antiprotozoal activity against P. falciparum. It counts as cell-based, Plasmodium falciparum. The conditions noted are these: for SI Pf: ratio of cytotoxic (L6) over antiprotozoal IC50 (Pf). On the procedure:
as §1

Data set [5] can be described thus: Cytotoxicity against L6 rat skeletal myoblasts. It counts as cell-based. On the procedure: as §1
Data set [6] has as its system P. falciparum (NF54 IEF). Set-up: method as in PMID 24853616. The conditions noted are these: previously reported data; cited from earlier work.
In data set [7] the test system is L6 rat skeletal myoblast cell line. Kind of data set: Cytotoxicity against L6 rat skeletal myoblasts. It counts as cell-based. On the procedure:
as §1

[8] abbreviates: Trypanosoma brucei, STIB 900 strain, bloodstream trypomastigotes, mean of two determinations ± deviation, read-out: IC50 Tbr.
[9] abbreviates: Trypanosoma brucei, STIB 900 strain, bloodstream trypomastigotes, value in μM of pure compound, read-out: IC50 Tbr (in brackets).
The mark [10] stands for this setting: Trypanosoma cruzi, Tulahuen C4 strain, intracellular amastigotes, value in μM of pure compound, read-out: IC50 Tc (in brackets).
Where [11] appears, read: Plasmodium falciparum, NF54, read-out: IC50 Pf.
[12] abbreviates: Plasmodium falciparum, NF54, read-out: IC50 Pf (in brackets).
Where [13] appears, read: L6 rat skeletal myoblast cell line, mean of two determinations ± deviation, read-out: IC50 Cytotox.
Where [14] appears, read: L6 rat skeletal myoblast cell line, value in μM of pure compound, read-out: IC50 Cytotox (in brackets).
Setting [15] is: Leishmania donovani, MHOM-ET-67/L82 strain, axenic amastigotes, mean of two determinations ± deviation, read-out: IC50 Ld.
[16] abbreviates: Leishmania donovani, MHOM-ET-67/L82 strain, axenic amastigotes, value in μM of pure compound, read-out: IC50 Ld (in brackets).
Setting [17] is: Trypanosoma cruzi, Tulahuen C4 strain, intracellular amastigotes, mean of two determinations ± deviation, read-out: IC50 Tc.
Setting [18] is: Plasmodium falciparum, NF54, NF54 IEF, mean of two determinations ± deviation, read-out: IC50 Pf.
[19] abbreviates: Plasmodium falciparum, NF54, NF54 IEF, value in μM of pure compound, read-out: IC50 Pf (in brackets).
The mark [20] stands for this setting: rat, IC50 Cytotox (in brackets).
The mark [21] stands for this setting: NF54 IEF, mean of two determinations ± deviation.

As usually defined, the IC50 is the midpoint of a concentration-inhibition curve.

On to `CCCCC/C=C/C=C/C(=O)NCCc1ccccc1` [Compound 4, deca-2E,4E-dienoic acid 2-phenylethylamide], for which the IC50 in data set [1] (setting [8]) came to 4.03 µg/mL; in data set [1] (setting [9]), 14.9 µM; in data set [2] (Trypanosoma cruzi, TULAHUEN, read-out: IC50 Tc), 5.02 ± 0.05 µg/mL; in data set [2] (setting [10]), 18.5 µM; in data set [3] (Leishmania donovani, read-out: IC50 Ld), 2.97 ± 0.54 µg/mL; in data set [3] (Leishmania donovani, read-out: IC50 Ld (in brackets)) it was 11 µM. Besides, the IC50 in data set [4] (setting [11]) was more than 5 µg/mL; in data set [4] (setting [12]), more than 18 µM; in data set [5] (setting [13]), 7.88 µg/mL; in data set [5] (setting [14]), 29.1 µM. The “SI Tbr” value in data set [1] amounted to 2.0. Also, the “SI Ld” value in data set [3] came to 2.7.

On to `CCCCC/C=C/C=C/C(=O)NCC(C)C` [Compound 2, deca-2E,4E-dienoic acid isobutylamide], for which, in data set [6], the “IC50 Pf” value was 3.3 µg/mL (≈ 14.8 µM).

Consider `CCCCCCCCCCCCCCCCOP(=O)([O-])OCC[N+](C)(C)C` [miltefosine, reference compound], for which the IC50 in data set [3] (setting [15]) came out at 0.127 ± 0.052 µg/mL; in data set [3] (setting [16]), 0.312 µM.

Turning to `C/C=C\C#CC#CCC/C=C/C=C/C(=O)NCC(C)C` [Compound 6, tetradeca-2E,4E,12Z-trien-8,10-diynoic acid isobutylamide], the IC50 in data set [1] (setting [8]) is 6.37 ± 0.94 µg/mL; in data set [1] (setting [9]) it was 23.7 µM; in data set [2] (setting [17]), 38.8 ± 2.1 µg/mL; in data set [2] (setting [10]), 144 µM; in data set [3] (setting [15]) it was 5.04 ± 1.17 µg/mL; in data set [3] (setting [16]) it was 18.7 µM. Further, the IC50 in data set [4] (setting [18]) stood at 7.19 ± 0.49 µg/mL; in data set [4] (setting [19]), 26.7 µM; in data set [5] (rat, IC50 Cytotox) it was 19.4 ± 1.7 µg/mL; in data set [5] (setting [20]) it was 72.2 µM. In data set [1], the “SI Tbr” value was found to be 3.1. Further, the “SI Ld” value in data set [3] is listed as 3.9. Further, the “SI Pf” value in data set [4] is 2.7.

Turning to “undeca-2E,4E-dien-8,10-diynoic acid isopentylamide [Compound 5]”, the “IC50 Tbr” value in data set [1] (STIB 900 strain, bloodstream trypomastigotes, mean of two determinations ± deviation) was 4.59 ± 0.39 µg/mL. Further, the IC50 in data set [1] (STIB 900 strain, bloodstream trypomastigotes, value in μM of pure compound, read-out: IC50 Tbr (in brackets)) was found to be 18.9 µM; in data set [2] (Tulahuen C4 strain, intracellular amastigotes, value in μM of pure compound, read-out: IC50 Tc (in brackets)) it was 66.9 µM; in data set [3] (MHOM-ET-67/L82 strain, axenic amastigotes, value in μM of pure compound, read-out: IC50 Ld (in brackets)) it was 16.6 µM; in data set [4] (NF54 IEF, value in μM of pure compound, read-out: IC50 Pf (in brackets)), 42.5 µM; in data set [7], 116 µM. Also, in data set [1], the “SI Tbr” value stood at 6.2. Also, the “IC50 Tc” value in data set [2] (Tulahuen C4 strain, intracellular amastigotes, mean of two determinations ± deviation) was 16.3 ± 0.3 µg/mL. For the same compound, in data set [3] (MHOM-ET-67/L82 strain, axenic amastigotes, mean of two determinations ± deviation), the “IC50 Ld” value amounted to 4.04 ± 0.71 µg/mL. Further, in data set [3], the “SI Ld” value worked out at 7.0. In data set [4] (setting [21]), the “IC50 Pf” value worked out at 10.3 ± 1.4 µg/mL. Also, the “SI Pf” value in data set [4] was 2.7. Also, the “IC50 Cytotox” value in data set [7] was 28.2 ± 6.9 µg/mL.

As to `COc1cc([C@@H]2c3cc4c(cc3[C@H](O)[C@H]3COC(=O)[C@H]23)OCO4)cc(OC)c1OC` [podophyllotoxin, reference compound], the results for the IC50 in data set [5] (setting [13]) and in data set [5] (setting [14]) were 0.008 ± 0.001 µg/mL and 0.019 µM, respectively.

In the case of `CCN(CC)CCCC(C)Nc1ccnc2cc(Cl)ccc12` (stereo not drawn) [chloroquine, reference compound], the IC50 in data set [4] (setting [11]) is 0.08 ± 0.003 µg/mL; in data set [4] (setting [12]), 0.25 µM.

Turning to `CCCCCCC/C=C/C=C/C(=O)NCCc1ccc(O)cc1` [Compound 7, Dodeca-2E,4E-dienoic acid 4-hydroxy-2-phenylethylamide], the IC50 in data set [1] (setting [8]) worked out at 2.26 ± 0.18 µg/mL; in data set [1] (setting [9]) it was 7.17 µM; in data set [2] (Trypanosoma cruzi, TULAHUEN, read-out: IC50 Tc (in brackets)), 5.97 µM; in data set [2] (setting [17]), 1.88 µg/mL; in data set [3] (setting [15]) it was 4.19 ± 1.64 µg/mL; in data set [3] (setting [16]), 13.3 µM. The IC50 came to 3.2 µg/mL in data set [4] (setting [18]); 10.1 µM in data set [4] (setting [19]); 0.2 µg/mL in data set [5] (rat, IC50 Cytotox); 0.69 µM in data set [5] (setting [20]). The “SI Tbr” value in data set [1] was 0.1. In addition, in data set [3], the “SI Ld” value is less than 0.1. In addition, the “IC50 Pf” value in data set [4] (setting [21]) came to 3.18 ± 0.20 µg/mL (≈ 10.1 µM). Moreover, the “SI Pf” value in data set [4] is recorded as less than 0.1. The “IC50 Cytotox” value in data set [7] (rat) was 0.19 ± 0.05 µg/mL (≈ 0.602 µM).

Take `C=CCCC/C=C/C=C/C(=O)NCC(C)C` [Compound 3, deca-2E,4E,9-trienoic acid isobutylamide]: the IC50 in data set [1] (setting [8]) is 2.91 ± 0.21 µg/mL; in data set [1] (setting [9]), 13.2 µM; in data set [2] (setting [17]), 39.9 µg/mL; in data set [2] (setting [10]) it was 181 µM; in data set [3] (setting [15]) it was 4.77 ± 1.02 µg/mL; in data set [3] (setting [16]), 21.6 µM. The IC50 came to 7.13 ± 0.63 µg/mL in data set [4] (setting [18]); 32.2 µM in data set [4] (setting [19]); 16.7 ± 0.1 µg/mL in data set [5] (rat, IC50 Cytotox); 75.3 µM in data set [5] (setting [20]). For the same compound, in data set [1], the “SI Tbr” value was 5.7. For the same compound, the “SI Ld” value in data set [3] turned out to be 3.5. For the same compound, in data set [4], the “SI Pf” value was 2.3.

For `Nc1nc(N)nc(Nc2ccc([As]3SCC(CO)S3)cc2)n1` (stereo not drawn) [melarsoprol, reference compound], the IC50 is 0.003 ± 0.001 µg/mL in data set [1] (Trypanosoma brucei, read-out: IC50 Tbr) and 0.008 µM in data set [1] (Trypanosoma brucei, read-out: IC50 Tbr (in brackets)).
